Measured values published in ChEMBL document CHEMBL3808384, “Synthesis of new tricyclic thiolactams as potent antitumor agent for pancreatic cancer” (Bioorg Med Chem Lett, 2016).

What was measured:
[1] = Cytotoxicity against human PANC1 cells at 30 uM cultured in nutrient-deprived medium; type: functional; conditions: PANC-1
[2] = Cytotoxicity against human PANC1 cells at 30 uM cultured in dulbecco's modified eagle's medium; type: functional; conditions: PANC-1
[3] = Cytotoxicity against human PANC1 cells cultured in nutrient-deprived medium; type: functional, PANC-1
[4] = Antitumor activity against human MIAPaCa2 cells xenografted in BALB/cAJcl-nu/nu mouse assessed as tumor volume at 8.02 mg/kg, ip measured every fourth day (reference value: 1917.6 +/- 280.3 mm3); type: functional, MIA PaCa-2
[5] = Antitumor activity against human MIAPaCa2 cells xenografted in BALB/cAJcl-nu/nu mouse assessed as reduction in tumor volume at 8.02 mg/kg, ip measured every fourth day relative to control; type: functional, MIA PaCa-2
Mus musculus [6] = assay: Toxicity in BALB/cAJcl-nu/nu mouse xenografted with human MIAPaCa2 cells assessed as body weight loss at 8.02 mg/kg, ip measured every fifth day; type: organism-based, MIA PaCa-2; conditions: in vivo
[7] = Cytotoxicity against human PANC1 cells cultured in dulbecco's modified eagle's medium; type: functional, PANC-1
[8] = Antitumor activity against human MIAPaCa2 cells xenografted in BALB/cAJcl-nu/nu mouse assessed as tumor volume at 7.5 mg/kg, ip measured every fourth day (reference value: 1917.6 +/- 280.3 mm3); type: functional, MIA PaCa-2
Mus musculus [9] = assay: Toxicity in BALB/cAJcl-nu/nu mouse xenografted with human MIAPaCa2 cells assessed as body weight loss at 7.5 mg/kg, ip measured every fifth day; type: organism-based, MIA PaCa-2; conditions: in vivo
[10] = Antitumor activity against human MIAPaCa2 cells xenografted in BALB/cAJcl-nu/nu mouse assessed as reduction in tumor volume at 7.5 mg/kg, ip measured every fourth day relative to control; type: functional, MIA PaCa-2

Compound | inhibition at 30 µM [2] | PC50 [3] | other results
S=C1c2c(c3ccccc3n2Cc2ccccc2)CCN1Cc1ccccc1 | < 50% |  | inhibition at 30 µM [1]: < 50%
Oc1cccc(Cn2c3c(c4ccccc42)CCN(Cc2ccccc2)C3=S)c1 | < 50% | 1.96 µM | Activity [4]: 1203.9 mm3; fold change (FC) [5]: 1.6; Activity (Mus musculus [6]): Non-toxic
O=C1c2c(c3ccccc3n2Cc2cccc(O)c2)CCN1Cc1ccccc1 |  | 44.8 µM | 
Fc1ccc(Cn2c3c(c4ccccc42)CCN(Cc2ccccc2)C3=S)cc1 |  |  | inhibition at 30 µM [1]: < 50%; PC50 [7]: 152.6 µM
Oc1cc(O)cc(Cn2c3c(c4ccccc42)CCN(Cc2ccccc2)C3=S)c1 | < 50% | 4.81 µM | 
Oc1ccc(Cn2c3c(c4ccccc42)CCN(Cc2ccccc2)C3=S)cc1 |  | 1.68 µM | PC50 [7]: 20 µM
Oc1ccc(Cn2c3c(c4ccccc42)CCN(Cc2ccccc2)C3=S)cc1O | < 50% | 4.56 µM | 
S=C1c2c(c3ccccc3n2Cc2ccc(Cl)cc2)CCN1Cc1ccccc1 | < 50% |  | inhibition at 30 µM [1]: < 50%
COc1ccc(Cn2c3c(c4ccccc42)CCN(Cc2ccccc2)C3=S)cc1O | < 50% | 7.07 µM | 
COc1ccc(Cn2c3c(c4ccccc42)CCN(Cc2ccccc2)C3=S)cc1 | < 50% |  | inhibition at 30 µM [1]: < 50%
Oc1ccccc1Cn1c2c(c3ccccc31)CCN(Cc1ccccc1)C2=S | < 50% | 2.23 µM | 
Oc1cccc(Cn2ccc3ccccc32)c1 |  | 173.7 µM | 
COc1cc(O)cc(Cn2c3c(c4ccccc42)CCN(Cc2ccccc2)C3=S)c1 | < 50% | 4.2 µM | 
O=C1OCCc2c1n(Cc1cccc(O)c1)c1ccccc21 |  | 131.7 µM | 
COc1cc(Cn2c3c(c4ccccc42)CCN(Cc2ccccc2)C3=S)ccc1O |  | 2.54 µM | PC50 [7]: 8.15 µM
COc1cc(C[C@H]2C(=O)OC[C@@H]2Cc2ccc(OC)c(OC)c2)ccc1O [ARCTIGENIN] | < 50% | 1.27 µM | Activity [8]: 856.8 mm3; Activity (Mus musculus [9]): Non-toxic; fold change (FC) [10]: 2.2
